# Several values for one entry are separate records, joined by “and”; a condition that tells them apart may be missing. Equal entries are not always repeated.
# Tests used:
# [1] = tested on: human adipose stem cell (ADSC); conditions: 5 μM in EGM-2 for 7 days, then 24 hours on Matrigel; compared with EGM-2 without ALK5 inhibitor
# Experimental: The culture medium was changed every 2 days, culture was carried out for 7 days. Thereafter, the ADSC was separated from the dish using trypsin/EDTA and suspended in 1 mL of DMEM, and the number of cells was counted. Further, the recovered ADSC was seeded on a 24-well plate previously coated with Matrigel at concentrations of 1.0×10^5 cells/dish, 1.5×10^5 cells/dish, and 2.0×10^5 cells/dish, and incubated at 37° C. for 24 hours. Thereafter, the morphology of the tissue construct was evaluated with a phase contrast microscope.
# [2] = tested on: human adipose stem cell (ADSC); conditions: 5 μM in EGM-2, 7 days, compared with EGM-2 without ALK5 inhibitor
# Experimental: The culture medium was changed every 2 days, and culture was carried out for 7 days after seeding to obtain a tissue construct.
# Fluorescence imaging of the tissue construct was carried out according to the following procedure. A transwell containing the obtained tissue construct was transferred to a 24-well plate. After washing with 2 mL of PBS, the tissue was fixed overnight under the condition of 4° C. using 2 mL of 4% PFA. Washing was carried out three times using 2 mL of PBS. Cells were subjected to permeabilization treatment for 7 minutes under room temperature conditions by using 0.05% Triton/PBS (500 μL in the transwell and 500 μL outside the transwell), and washing was carried out three times using 2 mL of PBS.
# The tissue was subjected to blocking treatment for 1 hour under room temperature conditions by using a 1% BSA/PBS solution (500 μL in the transwell and 500 μL outside the transwell). The BSA solution was aspirated, and 100 μL of a primary antibody solution (an anti-CD31 antibody diluted 100-fold in a 1% BSA/PBS solution) was added (50 μL in the transwell and 50 μL outside the transwell). A wet tissue paper was placed under the plate, and the plate was covered with an aluminum foil and incubated overnight under the condition of 4° C. […]
# [3] = tested on: human adipose stem cell (ADSC); conditions: 5 μM in EGM-2, 7 days
# Experimental: The culture medium was changed every 2 days, and culture was carried out for 7 days to obtain a tissue construct. Thereafter, the ADSC was gently detached while leaving cell surface proteins, by incubation for 5 minutes using 0.25% Trypsin, recovered from the dish, and suspended in 1 mL of DMEM, and the number of cells was counted.
# The ratio of vascular endothelial cells in the tissue construct was analyzed by the flow cytometry analysis using BD Facsmelody (registered trademark) cell sorter (Becton, Dickinson and Company). The tissue construct recovered as described above was centrifuged (100 g, 5 minutes, 4° C.). […] Thereafter, cells were centrifuged (100 g, 5 minutes, 4° C.) to wash the cells, and the pelleted cells were suspended in a buffer, and 10,000 events were recorded. Further, an isotype control for the conjugated antibody was measured simultaneously. […]
# The ratio of vascular endothelial cells in the sample was analyzed by the flow cytometry analysis using BD Facsmelody (registered trademark) cell sorter (Becton, Dickinson and Company). […] Thereafter, cells were centrifuged (100 g, 5 minutes, 4° C.) to wash the cells, and the pelleted cells were suspended in a buffer, and 10,000 events were recorded. Further, an isotype control for the conjugated antibody was measured simultaneously. […]
# [4] = tested on: cell balls of mature adipocytes and cells recovered from ADSC tissue construct; conditions: VEGF 50 ng/mL in EGM-2 with 10 μg/mL insulin and 5 μM ALK-5 inhibitor, 7 days
# Experimental: Regarding the produced tissue construct, 5 μL (equivalent to one cell ball) of the mixture (equivalent to 40 cell balls) was seeded on each well of a low-adhesion 96-well plate (IWAKI #4860-800LP).
# The cell ball seeded in the low-adhesion 96-well plate was incubated in a 37° C. incubator for 15 minutes to carry out gelation, and 300 μL of EGM-2 containing insulin of a final concentration of 10 μg/mL, an AKL-5 inhibitor of 5 μM, and VEGF of 50 ng/mL was added thereto.
# (§1) After 24 hours of culture, cells were transferred to a low-adhesion 24-well plate (IWAKI #4820-800LP), and 2 mL of the above EGM-2 or KBM was added thereto. The culture medium was changed every 2 to 3 days until the 7th day of culture.
# The fluorescence imaging of the tissue construct was carried out as in Production Example 4, except that various primary antibody solutions and the corresponding secondary antibody solutions were used. […]
# For observation, the cell ball was placed directly on a complete plate of a Confocal Quantitative Image Cytometer CQ1 (Yokogawa Electric Corporation), and the stained tissue construct was observed using the Confocal Quantitative Image Cytometer CQ1. […]
# [5] = tested on: cell balls of mature adipocytes and cells recovered from ADSC tissue construct
# Experimental: Isolated ADSC was suspended in an EGM-2 medium, seeded in a 10-cm dish, and incubated at 37° C. The culture medium was changed every 2 days, and culture was carried out for 7 days to obtain a tissue construct. From this tissue construct, cells including ADSC, ADSC-derived vascular endothelial cells, and vascular endothelial progenitor cells were recovered.
# The total number of cells of the tissue construct (cell ball) used was 4.0×10^4 cells/ball, and the mature adipocytes and the above-described recovered cells were used a ratio of 3:2.5 for the production.
# The cell ball seeded in the low-adhesion 96-well plate was incubated in a 37° C. incubator for 15 minutes to carry out gelation, and 300 μL of EGM-2 or KBM was added thereto. […] In addition, EGM-2 or KBM, containing only insulin of a final concentration of 10 μg/mL and an ALK-5 inhibitor of 5 μM, was used as a control.
# as §1
# The fluorescence imaging of the tissue construct was carried out as in Production Example 4, except that an anti-von Willebrand factor (vWF) antibody diluted 100-fold in a 1% BSA/PBS solution was used as a primary antibody solution and an Alexa Fluor 647-labeled anti-rabbit IgG antibody solution diluted 200-fold in 1% BSA/PBS solution was used as a secondary antibody solution. The vWF was used as a marker for vascular endothelial cells. In addition, for observation, the cell ball was placed directly on a complete plate of a Confocal Quantitative Image Cytometer CQ1 (Yokogawa Electric Corporation), and the stained tissue construct was observed using the Confocal Quantitative Image Cytometer CQ1 with laser excitation light at 640 nm.
Molecule,lumen formation / vascular network on Matrigel [1],vascular network formation by CD31 staining [2],ratio of vascular endothelial cells (CD31+) based on number of total cells recovered [3],proportion of vWF-positive vs CD34-positive cells among total CD31-positive cells [4],vascular network formation in cell ball [4],"vascular network, number of branches of blood vessels, vs control without VEGF ([5]; VEGF 0.5, 20, 50 or 100 ng/mL in EGM-2 or KBM with 10 μg/mL insulin and 5 μM ALK-5 inhibitor, 7 days)","vascular network, number of branches of blood vessels, vs culture medium containing leptin ([5]; VEGF-containing medium vs leptin 1 μg/mL, both with insulin and 5 μM ALK-5 inhibitor, 7 days)","vascular network, amount of blood vessels among VEGF concentrations ([5]; culture medium containing more than 20 ng/mL of VEGF)"
"Cc1cccc(-c2n[nH]cc2-c2ccc3ncccc3n2)n1 [ALK5 inhibitor, 2-[3-(6-methyl-2-pyridinyl)-1H-pyrazol-4-yl]-1,5-naphthyridine]",lumen formation is further progressed,a vascular network in which the number of branches is larger is formed,29.29% and 32.4%,,,,,
VEGF,,,,the proportion of vWF-positive cells with respect to the total CD31-positive cells was higher than the proportion of CD34-positive cells,a vascular network was also formed,the number of branches of blood vessels is large as compared with the control cell ball,the number of branches of blood vessels is large as compared with the cell ball cultured in a culture medium containing leptin,a vascular network having still more blood vessels was formed

# Reference: patent publication US20250002865A1, “METHOD FOR PRODUCING ORGANISM, AND METHOD FOR PROMOTING DIFFERENTIATION OF HUMAN ADIPOSE-DERIVED STEM CELLS INTO VASCULAR ENDOTHELIAL CELLS” (TOPPAN Holdings Inc., priority 2021, published 2025)
